Source: patent publication US20240269106A1, “SMALL MOLECULE MODULATOR TARGETING A RARE HISTONE MODIFICATION REGULATING ADIPOGENESIS AND PHARMACEUTICAL FORMULATION THEREOF” (COUNCIL OF SCIENTIFIC AND INDUSTRIAL RESEARCH AN INDIAN …, priority 2021, published 2024)
Like-named read-outs stand apart in the source and are kept apart here.

Key:
[1] = test system: histone butyrylation and acetylation in liver and adipose tissue; experiment: Histone modifications in liver and adipose tissue of db/db mice; type: in vivo
Protocol: Liver sample sectioning and immunohistochemical staining was performed using the same protocol as mentioned in example 15. It was observed that H4K5 butyrylation in liver increased in the db/db obese mice liver but was inhibited in presence of compound of Formula I (FIG. 13A). […] Acid extraction of histones was performed from the epididymal fat pads of mice using the same protocol as mentioned in example 7. It was observed that H4K5 butyrylation was reduced in the adipocytes of db/db mice treated with compound of Formula I compared to db/db mice treated with vehicle control (FIG. 13B).

[2] = test system: genetically obese db/db mice; experiment: Body weight gain of genetically obese db/db mice; type: in vivo; details: 50 mg/kg oral gavage
Protocol: Male db+/− and genetically obese db/db mice (8 weeks old) were obtained and acclimatized for 1 week prior to experiments. Mice were maintained on a 12-hour light/dark cycle at 22+/−3° C. and a relative humidity of 55% and given ad libitum access to food and water.
The age-matched db+/− and db/db mice were maintained on a standard laboratory pelleted diet and water. db/db mice were oral gavaged (50 mg/kg) with LTK14A in 0.5% carboxymethyl cellulose, equal volume of the vehicle was orally gavaged to control db/db mice for a total period of 30 days. db+/− animals were kept as untreated normal control group. The body weights and feed intake was recorded every week throughout the experimental period. The lean and fat mass of the mice were determined using Echo MRI in live mice on day 15th and day 30th.
Trend of weight gaining after 30 days of genetically obese leptin receptor homozygous mutant mice with compound of Formula I was plotted against that of mutant mice treated with vehicle control and also heterozygous mutant mice (FIG. 10)(panel i). Average weight gain, average fat mass and average lean mass of the mice from the three groups are represented in bar p graphs (panel ii, iii and iv respectively); n=4 in each group:one-way ANOVA with Dunnett's multiple comparison; * P<0.05, ** P<0.01, *** P<0.001, ns: not significant.

[3] = test system: C57BL/6J mice maintained on high fat diet; experiment: Weight gain of mice maintained on high fat diet, compound mixed with diet; type: in vivo; details: 50 mg/kg bw mixed with high fat diet
Protocol: Male C57BL/6J mice (8 weeks old) were obtained and acclimatized for 1 week prior to experiments. Mice were maintained on a 12-hour light/dark cycle at 22+/−3° C. and a relative humidity of 55% and given ad libitum access to food and water. The age-matched C57BL/6J mice were maintained on a standard laboratory chow diet or high fat diet (60 kcal % fat) with or without compound of Formula I (50 mg/kg body weight) and water. Body weight and food intake was measured twice every week.
Trend of weight gaining after 16 weeks of C57BL6/J mice maintained on normal chow diet, high fat diet and high fat diet mixed with compound of Formula I was plotted (FIG. 9) (panel i); n=4 in each group:one-way ANOVA with Dunnett's multiple comparison; * P<0.05, ** P<0.01, *** P<0.001, ns: not significant. Representative images of dissected bodies showing fat accumulation (panel ii) and epididymal fat pads (panel iii) of the mice from three groups. Representative images of morphology of adipose tissue (iv) and liver (v) from the mice of the three groups, as studied by hematoxylin and eosin staining.

[4] = Pharmacokinetic study, oral, serum LC-MS; type: in vivo, SD rats; details: for Cl/F_obs / Vz/F_obs / AUC(0-t) / Cmax / Tmax / AUC(0-inf) / MRT inf / half-life: free drug coarse suspension; for AUC(0-t) / Cmax / Tmax / AUC(0-inf) / MRT inf / half-life: Sprague-Dawley (SD); for AUC(0-inf): read-out: AUC 0-inf_obs; for MRT inf: read-out: MRT 0-inf_obs; for half-life: read-out: t½ (converted)
Protocol: Healthy male SD rats (weighing 200-230 gm) were used for the pharmacokinetic study. The animals were fasted overnight and had free access to water. The animals were divided into six groups with each group having 6 male SD rats (6×6=36) and were orally administered with optimized compound X nano lipid carrier formulation and coarse suspension (free drug) of compound X. All the formulations were administered orally with the help of rat oral feeding tube. The group comprises as follows, GROUP 1: Only vehicle sodium suspension as control/blank. GROUP 2: Compound X optimized NLC formulation by oral delivery (25 mg/kg). GROUP 3: Compound X free drug as coarse suspension by oral delivery (25 mg/kg). GROUP 4: Compound X free drug as coarse suspension by oral delivery (50 mg/kg). GROUP 5: Compound X free drug as coarse suspension by oral delivery (100 mg/kg). GROUP 6: Compound X free drug as coarse suspension by oral delivery (200 mg/kg). Blood samples were withdrawn from retro-orbital venous plexus puncture at time intervals of 0.25, 0.5, 1, 2, 4, 8, 12, 24 and 48 hours. The blood samples were allowed to clot and centrifuged for 15 min at 4500 rpm. The serum was separated and transferred into clean micro centrifuge tubes and stored at −80° C. until further analysis. 50 μl of rat serum was taken from samples and added to extraction solvent 2.5% IPA in n-Hexane (2 mL) containing internal standard (SCTK-14 of 2.5 ng) than Vortexed for 10 minutes, the samples were centrifuged at 4500 rpm and 4° C. for 15 minutes. After centrifugation, samples were stored at −80° C. for 30 minutes, and the supernatant organic layer was transferred and evaporated to dryness in a thermostatically controlled water bath maintained at 30° C. under steam of nitrogen for 30 minutes. After drying the residue was reconstituted by adding 200 microlitres of acetonitrile into pre-labelled vials and vortexed for 20 seconds, and then the samples were injected into the LC-MS system for analysis.
The pharmacokinetic parameters of compound X were calculated by non-compartmental estimations using PK solver 2.0 software.

[5] = male, rat, serum, 25 mg/kg oral
[6] = male, rat, serum, 50 mg/kg oral
[7] = male, rat, serum, 100 mg/kg oral
[8] = male, rat, serum, 200 mg/kg oral

For `COc1ccc(C(=O)C2=C3OC(C)(C)[C@@H](CC=C(C)C)C[C@@]34C[C@@H](CC=C(C)C)C(C)(C)[C@@](CC=C(C)C)(C2=O)C4=O)cc1OC` [Compound X], the “H4K5 butyrylation in adipocytes” value ([1]; epididymal fat pads, immunoblot) was “reduced”, the “H4K5 butyrylation in liver” value ([1]; immunohistochemistry) was “inhibited” and the “H4K12 and H3K14 acetylation in liver” value ([1]; immunohistochemistry) was “not affected”. The “effect on fat mass compared to lean mass (Echo MRI)” value [2] was “greater effect on fat mass”, the body weight ([2]; 30 days) was “reduction in body weight” and the adipose tissue hypertrophy [3] was “less hypertrophy”. For the same molecule, the liver lipid accumulation [3] was “less lipid accumulation”, the weight gain ([3]; 16 weeks) was “prevented weight gain” and the “difference in AUC between doses” value ([4]; free compound X at 25, 50, 100 and 200 mg/kg, except at 200 mg/kg) was “no appreciable difference in AUC”. For the same molecule, the Cl/F_obs ([4]; 25 mg/kg oral) was 3.338 ± 0.33 mg)/(ng/ml)/h, the Vz/F_obs ([4]; 25 mg/kg oral) was 71.906 ± 29.05 (mg)/(ng/ml) and the Cl/F_obs ([4]; 50 mg/kg oral) was 8.071 ± 2.12 mg)/(ng/ml)/h. For the same molecule, the Vz/F_obs ([4]; 50 mg/kg oral) was 193.686 ± 112.43 (mg)/(ng/ml), the Cl/F_obs ([4]; 100 mg/kg oral) was 18.233 ± 4.3 mg)/(ng/ml)/h and the Vz/F_obs ([4]; 100 mg/kg oral) was 346.653 ± 2.6193 (mg)/(ng/ml). The Cl/F_obs ([4]; 200 mg/kg oral) was 10.882 ± 4.58 mg)/(ng/ml)/h, the Vz/F_obs ([4]; 200 mg/kg oral) was 209.737 ± 91.22 (mg)/(ng/ml) and the AUC ([4]; male, SD, rat, serum, oral, free compound X, 200 mg/kg dose) was roughly 20 ng·h/mL. The AUC(0-t) [4, 5] was 6.56 ± 1.57 ng·h/mL, the Cmax [4, 5] was 0.853 ± 0.09 ng/mL and the Tmax [4, 5] was 4.67 ± 3.05 h. It also gave an AUC(0-inf) [4, 5] of 7.54 ± 0.8 ng·h/mL, an MRT inf [4, 5] of 22.2 ± 9.59 h and a half-life [4, 5] of 880 ± 304 min. It also gave an AUC(0-t) [4, 6] of 4.74 ± 0.1 ng·h/mL, a Cmax [4, 6] of 2.49 ± 0.14 ng/mL and a Tmax [4, 6] of 0.333 ± 0.14 h. For the same molecule, the AUC(0-inf) [4, 6] was 6.49 ± 1.71 ng·h/mL, the MRT inf [4, 6] was 28.4 ± 22.8 h and the half-life [4, 6] was 1120 ± 734 min. The AUC(0-t) [4, 7] was 5.29 ± 0.99 ng·h/mL, the Cmax [4, 7] was 0.343 ± 0.15 ng/mL and the Tmax [4, 7] was 0.667 ± 0.28 h. The AUC(0-inf) [4, 7] was 5.74 ± 1.6 ng·h/mL, the MRT inf [4, 7] was 21 ± 3.98 h and the half-life [4, 7] was 827 ± 224 min. For the same molecule, the AUC(0-t) [4, 8] was 19.1 ± 7.84 ng·h/mL, the Cmax [4, 8] was 2.83 ± 2.16 ng/mL and the Tmax [4, 8] was 2.92 ± 4.4 h. The AUC(0-inf) [4, 8] was 20.6 ± 7.98 ng·h/mL, the MRT inf [4, 8] was 15.7 ± 2.87 h and the half-life [4, 8] was 807 ± 259 min.
